In patent US4820712A, “Sparsomycin (SC-RS) compounds having antitumor activity, a process for their preparation and pharmaceutical compositions containing sparsomycin (SC-RS) compounds” (priority 1986, dated 1989):

Tests used:
[1] = tested on: ribosomes from E. coli MRE600 (peptidyl transferase activity); assay: polyphenylalanine synthesis assay, E. coli ribosomes; assay type: biochemical; conditions: concentration giving 50% inhibition relative to control; 37° C., 30 min; read-out: ED50 polyPhe synthesis E. coli
Experimental: (§1) The peptidyl transferase activity was measured by the polyphenylalanine synthesis assay (Nirenberg and Matthei, Proc. Natl. Acad. Sci. USA 47 (1961) 1588), the fragment reaction (Monro, Methods Enzymol. 20 (1971) 472) and the puromycin reaction. In all the in vitro tests, i.e. polyPhe synthesis, fragment reaction and puromycin reaction, ribosomes from E. coli MRE600 and S. cerevisiae Y166 were used. The reaction mixture for polyphenylalanine synthesis was slightly different for E. coli and S. cerevisiae.
E. coli: The reaction mixture (50 μl) contained 50 mM Tris-HCl pH 7.6, 15 mM MgCl2, 90 mM KCl, 15 mM β-mercapto ethanol, 1 mM GTP, 10 mM ATP, 0.2 mg/ml of polyuridylic acid, 1.5 mg/ml tRNA, 0.3 μM of ribosomes, 2.5 mg/ml of phosphoenol pyruvate, 20 μg/ml of pyruvate kinase, the required concentration of sparsomycin or its analogue and 5 μl of supernatant fraction S-100. Subsequently, [^3 H]phenylalanine, 30 μM (about 60 cpm/pmol) was added to start the reaction. Incubation was at 37° C. for 30 min. The reaction was stopped by the addition of 1 ml of 10% TCA and the samples were filtered through glass fiber filters. The filters were washed with 10 ml of cold 10% TCA, dried and counted for radioactivity.
(§2) The concentration of sparsomycin or an analog giving 50% inhibition of the protein synthesis relative to the control is given in ED50.

[2] = tested on: ribosomes from E. coli MRE600 (peptidyl transferase activity); assay: fragment reaction, E. coli ribosomes; assay type: biochemical; conditions: 50% inhibition relative to control; 0° C., 30 min, 33% methanol; read-out: ED50 Fragment reaction E. coli
Experimental: as §1
The fragment reaction was carried out in 150 μl of 33 mM Tris-HCl pH 7.4, 270 mM KCl, 13 mM magnesium acetate containing 1 mg/ml of ribosomes, 2 mM puromycin, 1 pmol of N-acetyl-[^3 H]Leu-ACCAC(U), the required concentration of sparsomycin or its analogue and 33% methanol. The reaction was initiated by the addition of the alcohol and allowed to proceed at 0° C. for 30 min, and was then stopped by the addition of 100 μl of 0.3M sodium acetate pH 5.5 saturated with MgSO4. The samples were extracted with 1.5 ml of ethyl acetate and 1 ml of the organic phase was checked for radioactivity. The 3' terminal pentanucleotide N-acetyl-[^3 H]Leu-ACCAC(U) was prepared from N-acetyl-[^3 H]Leu-tRNA by ribonuclease T1 as described by Monro.
as §2

[3] = tested on: RC (renal cell) carcinoma; assay: in vivo antitumor assay, RC (renal cell) carcinoma; set-up: species or system CDF1 mice
Experimental: The antitumor activity of the present compounds has also been investigated by in vivo assays. In the assays, mice were treated for nine days in succession, starting at 24 hours after the time of tumor implant.
The results are shown in tables 4, 5 and 6 and represent the number of tumor-bearing mice surviving after administration of optimal doses of the test compound, expressed as a treatment/control (T/C×100%) ratio. In the tables, information is provided with respect to the sex, dose, weight loss of treated animals compared to control animals, and the number of survivors in groups of 6 mice.

[4] = acute toxicity LD50; assay type: in vivo, mice; conditions: for LD50: mouse, in vivo, ip, daily x9 injections, mice, 95% confidence interval given, read-out: LD 50 in mg/kg/inj i.p. in mice
Source text: It appears therefrom that ala-sparsomycin is about 9× less toxic than sparsomycin.

[5] = tested on: whole reticulocytes; conditions: attributed to being unable to penetrate these cells; cited from earlier work
[6] = clinical tests (Cancer. Chemother. Rep. (1969), 43, 29); cited from earlier work
[7] = female mice, ip daily x9, dose mg/kg: 2a 2.3
[8] = male mice, ip daily x9, optimal dose mg/kg: sparsomycin 0.125, n-octyl 20.0, benzyl 2.7, 2a 1.1
[9] = male mice, ip daily x9, dose mg/kg: sparsomycin 0.125, n-octyl 20.0, benzyl 2.7, 2a 1.1

| SMILES | IC50 [1] | IC50 [2] | T/C (survival, treatment/control x 100%) ([3]; female mice, ip daily x9, optimal dose mg/kg: 2a 2.3) | cures (survivors in groups of 6 mice) [3, 7] | weight loss (T - C) [3, 7] | T/C (survival, treatment/control x 100%) [3, 8] | cures (survivors in groups of 6 mice) [3, 9] | weight loss (T - C) [3, 9] | times less toxic than sparsomycin (LD50 ratio) ([4]; compared with sparsomycin, LD50 i.p. in mice) | LD50 [4] | weight loss (T - C) ([3]; mouse, in vivo, ip) | activity against whole reticulocytes [5] | toxicity revealed in clinical tests [6] |
| --- | --- | --- | --- | --- | --- | --- | --- | --- | --- | --- | --- | --- | --- |
| CSC[S@+]([O-])C[C@H](C)NC(=O)/C=C/c1c(C)[nH]c(=O)[nH]c1=O [2a, (Sc Rs)-1-(methylthiomethyl)sulfinyl-2-[β-(6-methyl-5-uracilyl)acrylamido]-propane] | 15.1 µM | 4.7 µM | 300% | 0/6 | -1.5 g | 304% | 0/6 | -0.6 g | about 9 × | 2.33 mg/kg |  |  |  |
| CSC[S@+]([O-])C[C@H](CO)NC(=O)/C=C/c1c(C)[nH]c(=O)[nH]c1=O [Sparsomycin] | 8.5 µM | 3.2 µM |  |  |  | 100% | 0/6 |  |  | 0.26 mg/kg | -1.7 g | not active | eye toxicity |
